Key:
Assay type in all cases: functional
Conditions in all cases: Bos taurus
Nucleic Acid [1] = test: Thermal denaturation in calf thymus DNA after incubation at 37 degrees C for 0h at PBD/DNA 1:5 molar ratio
Nucleic Acid [2] = test: Thermal denaturation in calf thymus DNA after incubation at 37 degree C for 18 hr at PBD/DNA 1:5 molar ratio
Nucleic Acid [3] = test: Thermal denaturation in calf thymus DNA after incubation at 37 degrees C for 18 hr at PBD/DNA 1:5 molar ratio
Nucleic Acid [4] = test: Thermal denaturation in calf thymus DNA after incubation at 37 degrees C Centigrade for 18 hr at PBD/DNA 1:5 molar ratio

Structure (SMILES)	ΔTm (Nucleic Acid [1]) [°C]	ΔTm (Nucleic Acid [2]) [°C]	ΔTm (Nucleic Acid [3]) [°C]	ΔTm (Nucleic Acid [4]) [°C]
COc1cc2c(cc1O)N=C[C@@H]1CCCN1C2=O	0.3	0.7		
COc1cc2c(cc1OCCCC(=O)N[C@H]1C[C@H]3C=Nc4cc(OCc5ccccc5)c(OC)cc4C(=O)N3C1)N=C[C@@H]1CCCN1C2=O	3.7		9.3	
COc1cc2c(cc1OCCCCC(=O)N[C@H]1C[C@H]3C=Nc4cc(OCc5ccccc5)c(OC)cc4C(=O)N3C1)N=C[C@@H]1CCCN1C2=O	6.1		10.9	
COc1cc2c(cc1OCC(=O)N[C@H]1C[C@H]3C=Nc4cc(OCc5ccccc5)c(OC)cc4C(=O)N3C1)N=C[C@@H]1CCCN1C2=O	0.9			4.7

Source: ChEMBL document CHEMBL1136351, “Synthesis and DNA-binding affinity of A-C8/C-C2 alkoxyamido-linked pyrrolo[2,1-c][1,4]benzodiazepine dimers” (Bioorg Med Chem Lett, 2003)
